Here are results for one compound from patent US9994548B2, “Phenyl-substituted nicotinic ligands, and methods of use thereof” (Georgetown University, priority 2011, dated 2018).

Entries after “also recorded” stand apart in the source; their conditions may differ.

The test system of assay [1] is 41 other targets, including many CNS receptors and transporters. In words: NIMH PDSP binding assays for targets other than nAChRs. The procedure: All binding assays for targets other than nAChRs were performed by the National Institute of Mental Health's Psychoactive Drug Screening Program (PDSP) supported by NIMH grant HHSN-271-2008-00025-C(PI: Bryan Roth). For experimental details (Ki determinations, receptor binding profiles, functional data, MDR1 data, etc. as appropriate) refer to the PDSP web site http://pdsp.med.unc.edu/.
To determine affinities of the lead compound, VMY-2-95, for targets other than neuronal nAChRs, we tested VMY-2-95 in binding assays using 41 other targets, including many CNS receptors and transporters. […] The Ki values of VMY-2-95 at these 9 targets were determined by performing secondary binding assays using a series of concentrations of VMY-2-95. […] Furthermore, the binding affinity of VMY-2-95 for α4β2 nAChRs is at least 3,000 times higher than that for any of those 9 targets.

In assay [2] the test system is nicotine self-administration. The assay is described as follows: Nicotine self-administration in rats. In kind it is in vivo, rat. The procedure: The studies were conducted in accordance with the regulations outlined by the Duke University Animal Care and Use Committee. The rats housed in approved standard laboratory conditions in a Duke University vivarium facility near the testing room to minimize stress induced by transporting the rats. The rats were kept on a 12:12 reverse day/night cycle, so that they were in their active phase during behavioral testing. The rats in the drug iv self-administration studies were singly housed to prevent them from damaging each other's catheters. The rats in the locomotor activity studies were housed in groups of 2-3. All rats were allowed access to water at all times; the rats in the nicotine-self-administration study were fed daily approximately 30 minutes after completing the sessions while those in the locomotor activity study had continuous access to food.
VMY-2-95 was injected s.c. 10 minutes before testing in a volume of 1 mL/kg of saline. The doses (0, 0.3, 1 and 3 mg/kg) were given in a counterbalanced order with at least two days between successive injections.
Each infusion was immediately followed by a one-minute period in which the cue lights went out, the house light came on and responses were recorded but not reinforced.
After food training, the animals were surgically implanted with jugular catheters. […] Alpha of p<0.05 (two-tailed) was used as the threshold for significance.

In assay [3] the target is T1, α3β4 nAChR (Rattus norvegicus, UniProt P04757+P12392).
T1 construct: expressed in transfected cells; host or cells: HEK 293 (KXα3β4R2)
The assay is described as follows: [3H]-epibatidine radioligand competition binding assay. As to conditions: competition against [3H]-epibatidine, stably transfected cell membranes; read-out: Ki α3β4. The method, then:
(§1) Stably transfected cell lines, tissue culture conditions, membrane preparation procedures and binding assays were described previously. Briefly, cultured cells at >80% confluence were removed from their flasks (80 cm^2) with a disposable cell scraper and placed in 10 mL of 50 mM Tris.HCl buffer (pH 7.4, 4° C.). The cell suspension was centrifuged at 10,000×g for 5 min and the pellet was collected. The cell pellet was then homogenized in 10 mL buffer with a polytron homogenizer and centrifuged at 36,000 g for 10 min at 4° C. The membrane pellet was resuspended in fresh buffer, and aliquots of the membrane preparation were used for binding assays. The concentration of [^3H]-epibatidine used was ˜500 pM for competition binding assays. […] Bound and free ligands were separated by vacuum filtration through Whatman GF/C filters treated with 0.5% polyethylenimine. The filter-retained radioactivity was measured by liquid scintillation counting. Specific binding was defined as the difference between total binding and nonspecific binding. Data from competition binding assays were analyzed using Prism 5 (GraphPad Software, San Diego, Calif.).
(§2) The in vitro binding affinities of the new ligands were measured for defined receptor subtypes (α2β2, α2β4, α3β2, α3β4, α4β2, α4β4, α6β2, α6β4, and α7) expressed in stably transfected cell lines. [^3H]Epibatidine ([^3H]EB) binds to the agonist recognition site of all of the defined receptor subtypes with high affinities. Rat forebrain homogenates were included to allow comparison between the heterologous and native α4β2 and α7 nAChRs. See FIG. 18 for binding affinity values (Ki) of the ligands at the three major nAChR subtypes (α3β4, […], and α7).
(§3) The binding affinities of all compounds synthesized for the receptor subtypes were examined in binding competition studies against [^3H]-epibatidine.
In general terms: Loss of bound radioactivity is the signal in a displacement assay; it reports binding, not function.

For assay [4], the target named is T2, α7 nAChR (Rattus norvegicus, UniProt Q05941).
T2 construct: expressed in transfected cells
The description is as above. The following applies: competition against [3H]-epibatidine. The method, then: as §1, §2, §3

Assay [5] has as its target T3, α4β2 nAChR (Rattus norvegicus, UniProt P09483+P12390).
T3 construct: expressed in transfected cells
Described as above. As to conditions: competition against [3H]-epibatidine, stably transfected cell membranes; read-out: Ki α4β2. The procedure:
as §1, §2, §3

Setting [6] is: 10 μM, 41 targets, primary binding assays.

Usually Ki stands for the equilibrium dissociation constant of an inhibitor or competing ligand from its target. With `C(#Cc1cncc(OC[C@@H]2CCN2)c1)c1ccccc1` [VMY-2-95, (S)-3-(azetidin-2-ylmethoxy)-5-(phenylethynyl)pyridine], the “number of targets "hit" (more than 50% inhibition of binding)” value in assay [1] (setting [6]) was 9. In addition, in assay [1] (setting [6]), the “number of targets "miss" (less than 50% inhibition of binding)” value is 32. For the same compound, the “binding affinity for α4β2 nAChRs relative to the 9 hit targets” value in assay [1] (Ki from secondary binding assays) is on record as “at least 3,000 times”. For the same compound, in assay [2] (3 mg/kg s.c., 10 min before session, p<0.025), the “nicotine self-administration (number of nicotine infusions) vs saline vehicle” value is “significantly reduces; also recorded: significant (p<0.025) decrease”. For the same compound, the “intravenous nicotine self-administration, overall dose effect” value in assay [2] (0.3, 1, 3 mg/kg s.c., F(3,42)=3.36, p<0.05) is listed as “decreased intravenous nicotine self-administration in a dose-dependent manner”. In addition, the “nicotine self-administration vs saline vehicle” value in assay [2] (lower doses 0.3 and 1 mg/kg s.c.) is given as “did not produce significant decreases; also recorded: did not produce significant effects”. Moreover, the Ki was found to be 650 nM in assay [3], 580 nM in assay [4] and 0.049 nM in assay [5].
